Assay results reported in patent publication US20260345573A1, “METHOD OF TREATMENT WITH ILOPERIDONE” (Vanda Pharmaceuticals Inc., priority 2023, published 2026).
Entries after “also recorded” stand apart in the source; their conditions may differ.

How the values were obtained:
Format in all cases: in vivo, human
[1] = Study 3101: serum urate (uric acid) in subjects with acute schizophrenia, by SLC2A9 rs7442295 genotype
Procedure: (§1) A study is performed to evaluate the efficacy and safety of iloperidone compared with placebo and active control (ziprasidone) in subjects with acute schizophrenia (“Study 3101”). Patients are randomized to receive one of iloperidone at a dose of 24 mg/day given in a divided dose as 12 mg twice daily (bid), active comparator ziprasidone, or placebo. […] Uric acid results are converted to SI units using the conversion 1 mg/dL=59.5 μmol/L.
Results are provided in Table 6 below, including an increase of 28.0 μmol/L for iloperidone compared to a decrease of 4.2 μmol/L in placebo groups.
Patient genotypes are obtained via a commercial 500k SNP Gene Chip Human Mapping Array. To test the hypothesis of altered urate serum levels in association with variants in SLC2A9, linear models for SLC2A9 variants are performed on urate at baseline levels (corrected for PCs, age, sex) followed by samples collected at end of study (EOS).

[2] = Studies 3201 and 3101 (Examples 1 and 2), conclusions on serum urate
Procedure: (§2) A multi-center, randomized, double-blind, placebo-controlled study is performed to evaluate the safety and efficacy of iloperidone for four (4) weeks in the treatment of patients with acute manic episodes associated with bipolar I disorder (“Study 3201”). Patients in the study are randomized to orally receive either iloperidone at a dose of 24 mg/day given in a divided dose as 12 mg twice daily (bid), or matched placebo.
as §1

[3] = Study 3201: serum urate in patients with acute manic episodes associated with bipolar I disorder, by SLC2A9 rs7442295 genotype and sex; details: for LS Mean Change (SE) in serum urate from baseline: 24 mg/day oral (12 mg bid)
Procedure: as §2
These increases are illustrated in FIG. 1 using solid data points.
To test the hypothesis of altered urate serum levels in association with variants in the SLC2A9 gene, whole genome sequencing is conducted from blood samples, genotype status is obtained through standard data analysis, and linear models for SLC2A9 variants are performed on urate concentration in samples collected at baseline (corrected for PCs, age, sex) and samples collected at the end of the study (EOS).
As shown in FIGS. 3-4, the rs7442295 variant of interest has a statistically significant effect on iloperidone-induced change in serum urate levels from baseline to Day 28 in patients with bipolar disorder. FIG. 3 illustrates individual patient changes in serum urate (in μmol/L) from baseline to Day 28, grouped according to treatment group (iloperiodone or placebo) and carrier status for variant rs7442295, while FIG. 4 illustrates mean serum levels for at patient evaluations conducted at baseline and Day 28, separated according to treatment group (iloperidone or placebo) and patient carrier status for rs7442295. The significant interaction affecting change is particularly observed between genotype*sex*treatment (full model: Multiple R-squared: 0.09251, Adjusted R-squared: 0.07078, F-statistic: 4.256 on 8 and 334 DF, p=0.00006942).
This observation is statistically significant when comparing genotypes at BOS as well as when comparing GG with AG and AA genotypes between treatment and placebo group in both males and females combined. Table 2 (below) provides mean change from baseline to Day 28 by treatment group and carrier status for variant rs7442295, and Table 3 (below) provides LS mean change in serum urate from baseline to Day 28 evaluations for serum urate by treatment group and carrier status for variant rs7442295) (SD=standard deviation).

## O=C1Cc2cc(CCN3CCN(c4nsc5ccccc45)CC3)c(Cl)cc2N1 [ziprasidone]
[1]; ziprasidone active comparator arm, schizophrenia
  LS mean change from baseline to endpoint in serum urate: 13.1 µmol/L
[1]; ziprasidone arm, schizophrenia
  Increase in serum urate relative to iloperidone (in words): approximately half of that seen in with iloperidone treatment

## COc1cc(C(C)=O)ccc1OCCCN1CCC(c2noc3cc(F)ccc23)CC1 [Iloperidone, 1-[4-[3-[4-(6-flouro-1,2-benzisoxazol-3-yl)-1-piperidinyl]propoxy]-3-methoxyphenyl]ethanone]
[2]; bipolar disorder and schizophrenia
  Effect on serum urate compared to placebo (in words): associated with increases in serum urate compared to placebo
[2]; genotype G/G, both studies
  Increase in serum urate in G/G patients (in words): nearly twice as large
[3]; Baseline, female, genotype AA (4/42), ULN 394 μmol/l
  Percentage of patients with serum urate above ULN: 9.5%
[3]; Baseline, female, genotype AG (3/39), ULN 394 μmol/l
  Percentage of patients with serum urate above ULN: 7.7%
[3]; Baseline, female, genotype GG (0/7), ULN 394 μmol/l
  Percentage of patients with serum urate above ULN: 0.0%
[3]; Baseline, iloperidone group, bipolar mania, n=206
  Serum urate at baseline (SE): 323.0 (77.13), 206 μmol/L
[3]; Baseline, male, genotype AA (6/60), ULN 453 μmol/l
  Percentage of patients with serum urate above ULN: 10.0%
[3]; Baseline, male, genotype AG (1/41), ULN 453 μmol/l
  Percentage of patients with serum urate above ULN: 2.4%
[3]; Baseline, male, genotype GG (1/12), ULN 453 μmol/l
  Percentage of patients with serum urate above ULN: 8.3%
[3]; Baseline, male, genotype GG (1/12), ULN 453 μmol/l, listed as iloperidone
  Percentage of patients with serum urate above ULN: about 8.3%
[3]; Day 7, bipolar mania
  LS Mean Difference (95% CI) in serum urate change vs placebo: 1.3 (−9.29, 11.88) μmol/L
[3]; Day 7, bipolar mania, n=199
  LS Mean Change (SE) in serum urate from baseline: −2.7 (−4.07), 199 μmol/L
[3]; Day 14, bipolar mania
  LS Mean Difference (95% CI) in serum urate change vs placebo: 15.3 (4.50, 26.15) μmol/L
[3]; Day 14, bipolar mania, n=173
  LS Mean Change (SE) in serum urate from baseline: 12.6 (−4.28), 173 μmol/L
[3]; Day 21, bipolar mania
  LS Mean Difference (95% CI) in serum urate change vs placebo: 21.0 (8.91, 33.18) μmol/L
[3]; Day 21, bipolar mania, n=157
  LS Mean Change (SE) in serum urate from baseline: 19.1 (−5.24), 157 μmol/L
[3]; Day 28 (endpoint), bipolar mania, n=142
  LS Mean Change (SE) in serum urate from baseline: 27.2 (−4.93), 142 μmol/L
[3]; Day 28 (endpoint), bipolar mania, n=142, listed as iloperidone
  LS Mean Change (SE) in serum urate from baseline: 27.2 µmol/L
[3]; Day 28, bipolar mania
  Fold greater increase in serum urate from baseline compared to placebo: 4 fold
  LS Mean Difference (95% CI) in serum urate change vs placebo: 27.1 (14.94, 39.20) μmol/L
[3]; Day 28, genotype AA, female
  LS Mean Difference (95% CI) in serum urate change vs placebo: 27.85 (2.93, 52.76) μmol/L
[3]; Day 28, genotype AA, male
  LS Mean Difference (95% CI) in serum urate change vs placebo: 35.52 (12.82, 58.22) μmol/L
[3]; Day 28, genotype AA, 95% CI (14.82, 49)
  LS Mean Difference in serum urate change vs placebo: 31.91 µmol/L
[3]; Day 28, genotype AG, female
  LS Mean Difference (95% CI) in serum urate change vs placebo: −7.9 (−34.82, 19.03) μmol/L
[3]; Day 28, genotype AG, male
  LS Mean Difference (95% CI) in serum urate change vs placebo: 40.79 (14.61, 66.96) μmol/L
[3]; Day 28, genotype AG, 95% CI (−4.18, 33.86)
  LS Mean Difference in serum urate change vs placebo: 14.84 µmol/L
[3]; Day 28, genotype GG, female
  LS Mean Difference (95% CI) in serum urate change vs placebo: 3.08 (−50.97, 57.13) μmol/L
[3]; Day 28, genotype GG, male
  LS Mean Difference (95% CI) in serum urate change vs placebo: 102.96 (48.93, 156.99) μmol/L
[3]; Day 28, genotype GG, 95% CI (18.91, 94.99)
  LS Mean Difference in serum urate change vs placebo: 56.95 µmol/L
[3]; Day 28, 24 mg/day, all genotypes, bipolar mania
  Mean change from baseline in serum urate: 33.4 µmol/L
[3]; EOS (LOCF), genotype AA, female
  LS Mean Difference (95% CI) in serum urate change vs placebo: 15.97 (−6.71, 38.64) μmol/L
[3]; EOS (LOCF), genotype AA, male
  LS Mean Difference (95% CI) in serum urate change vs placebo: 18.99 (−0.89, 38.86) μmol/L
[3]; EOS (LOCF), genotype AG, female
  LS Mean Difference (95% CI) in serum urate change vs placebo: −1.4 (−25.85, 23.06) μmol/L
[3]; EOS (LOCF), genotype AG, male
  LS Mean Difference (95% CI) in serum urate change vs placebo: 19.58 (−2.91, 42.08) μmol/L
[3]; EOS (LOCF), genotype GG, female
  LS Mean Difference (95% CI) in serum urate change vs placebo: 4.54 (−50.43, 59.52) μmol/L
[3]; EOS (LOCF), genotype GG, male
  LS Mean Difference (95% CI) in serum urate change vs placebo: 88.45 (38.7, 138.21) μmol/L
[3]; EOS, genotype AA, 95% CI (3.19, 33.28)
  LS Mean Difference in serum urate change vs placebo: 18.23 µmol/L
[3]; EOS, genotype AG, 95% CI (−8.27, 25.48)
  LS Mean Difference in serum urate change vs placebo: 8.61 µmol/L
[3]; EOS, genotype GG, 95% CI (18.68, 92.13)
  LS Mean Difference in serum urate change vs placebo: 55.4 µmol/L
[3]; bipolar mania, vs placebo
  Effect on serum urate (in words): statistically significant increase in serum urate; also recorded: associated with increases in serum urate compared to placebo
[3]; genotype GG, bipolar mania
  Iloperidone-associated increase in serum urate in rs7442295-G/G individuals (in words): significant in individuals who are homozygous for the rs7442295 (G) allele
  Increase in serum urate in G/G patients (in words): nearly twice as large
[3]; genotype GG, especially males, ULN 453 (male), 394 (female) μmol/l
  Serum urate relative to ULN in G/G individuals treated with iloperidone (in words): a significant number of individuals (particularly homozygous G/G males) exceed the upper limit of normal (ULN); also recorded: above ULN value in individuals that are homozygous (GG) for the rs7442295 (G) allele
[3]; male, genotype GG, baseline to end of study
  Fold increase in percentage of patients with high urate levels (above ULN): approximately 4 fold
[1]; Day 0, iloperidone group, schizophrenia, n=300
  Serum urate at Day 0 (SE): 318.3 (73.19), 300 μmol/L
[1]; Day 14, schizophrenia
  LS Mean Difference (95% CI) in serum urate change vs placebo: 18.4 (6.55. 29.93) μmol/L
[1]; Day 14, 24 mg/day (12 mg bid), schizophrenia, n=276
  LS Mean Change (SE) in serum urate from baseline: 15.5 (58.85), 276 μmol/L
[1]; Day 28, genotype AA
  LS Mean Difference (95% CI) in serum urate change vs placebo: 10.05 (14.90, 35.97) μmol/L
[1]; Day 28, genotype AG
  LS Mean Difference (95% CI) in serum urate change vs placebo: 30.02 (−2.86, 57.63) μmol/L
[1]; Day 28, genotype GG
  LS Mean Difference (95% CI) in serum urate change vs placebo: 52.4 (0.33, 104.45) μmol/L
[1]; Day 28, schizophrenia
  Change from baseline in uric acid relative to ziprasidone arm (in words): more than twice the change from baseline observed in the ziprasidone arm
  Fold greater increase from baseline in blood uric acid compared to placebo: roughly 4 fold
  LS Mean Difference (95% CI) in serum urate change vs placebo: 23.8 (9.16. 37.96) μmol/L
[1]; Day 28, iloperidone 24 mg/day (12 mg bid), schizophrenia, n=206
  LS Mean Change (SE) in serum urate from baseline: 28.0 (4.05), 206 μmol/L
[1]; Day 28, iloperidone 24 mg/day (12 mg bid), schizophrenia, n=206, listed as iloperidone
  LS Mean Change (SE) in serum urate from baseline: 28.0 µmol/L
[1]; genotype GG, male schizophrenia patients
  Iloperidone-induced change in serum urate with GG genotype, by sex (in words): particular pronounced in male schizophrenia patients
[1]; schizophrenia, ANCOVA
  Effect on serum urate compared to placebo (in words): statistically significant increase in serum urate
